Source: patent US9399649B2, “Compounds for treating spinal muscular atrophy” (PTC Therapeutics Inc., priority 2012, dated 2016)

What was measured:
Smn protein = Smn protein assay in cultured cells (SMN HTRF); format: cell-based, human; conditions: SMA patient fibroblast cells (GM03813), 48 hours; for EC1.5x for Smn protein expression: 7-point concentration curve, concentration producing 1.5 times Smn protein vs DMSO vehicle; for maximum fold (Fold) increase of Smn protein: 7-point concentration data, relative to vehicle control
Method in brief: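 Smn protein measured by HTRF (anti-SMN d2/kryptate) in lysates of SMA patient fibroblasts after 48 h compound treatment, 7-point 3.16-fold dilutions, triplicates. The 665/620 nm ratio is blank-corrected to ΔF, then divided by the vehicle ΔF to give fold increase.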

[1] = tested on: full length SMN2 minigene mRNA containing SMN2 exon 7; test: SMN2 minigene mRNA splicing RT-qPCR assay in cultured cells; format: cell-based, human; conditions: Homo sapiens, HEK293-H; HEK293H cells stably transfected with SMN2-A minigene, 24 hours, 7-point concentration curve; concentration giving 1.5-fold full length SMN2 mRNA vs vehicle; read-out: EC1.5x for production of full length SMN2 mRNA
Method in brief: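 Read-out is minigene FL mRNA (exon 7 included) relative to vehicle, from efficiency-corrected ΔΔCt with GAPDH normalisation. Primers and probe span exon 7, exon 8 and luciferase, so endogenous SMN is not detected. Stable SMN2-A minigene HEK293H cells, 24 h compound exposure at 37 °C, 7-point curve in duplicate.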

Row | Compound | melting point [°C] | EC1.5x for Smn protein expression (Smn protein) | maximum fold (Fold) increase of Smn protein (Smn protein) | EC (1.5-fold) [1] [µM]
1 | Cc1cn2cc(-c3cc4ccc(N5CCN(C)[C@@H](C)C5)cc4c(=O)o3)nc2cn1 [Cpd 121, 7-[(3S)-3,4-dimethylpiperazin-1-yl]-3-(6-methylimidazo[1,2-a]pyrazin-2-yl)-1H-isochromen-1-one] | 250 to 255 | **** (an EC1.5×≦0.3 nM is indicated by four stars (****)) | ***** (a fold increase >1.65 is indicated by five stars (*****)) | ≤ 0.1
2 | Cc1cn2cc(-c3cc4ccc(N5CCN(C)CC5)cc4c(=O)o3)nc2cn1 [Cpd 122, 3-(6-methylimidazo[1,2-a]pyrazin-2-yl)-7-(4-methylpiperazin-1-yl)-1H-isochromen-1-one] | 279 to 285 | **** (an EC1.5×≦0.3 nM is indicated by four stars (****)) | ***** (a fold increase >1.65 is indicated by five stars (*****)) | ≤ 0.1
3 | Cc1cn2cc(-c3cc4ccc(N5CCC(O)CC5)cc4c(=O)o3)nc2c(C)n1 [Cpd 123, 3-(6,8-dimethylimidazo[1,2-a]pyrazin-2-yl)-7-(4-hydroxypiperidin-1-yl)-1H-isochromen-1-one] | 290 to 292 |  | * (A maximum fold increase of ≦1.2 is indicated by one star (*)) | 1 to 3
4 | Cc1cn2cc(-c3cc4ccc(N5CCC(N(C)C)CC5)cc4c(=O)o3)nc2c(C)n1 [Cpd 124, 7-[4-(dimethylamino)piperidin-1-yl]-3-(6,8-dimethylimidazo[1,2-a]pyrazin-2-yl)-1H-isochromen-1-one] | 274 to 276 | **** (an EC1.5×≦0.3 nM is indicated by four stars (****)) | **** (a fold increase between >1.5 and ≦1.65 is indicated by four stars (****)) | ≤ 0.1
5 | Cc1cn2cc(-c3cc4ccc(N5CCN[C@H](C)C5)cc4c(=O)o3)nc2cn1 [Cpd 125, 3-(6-methylimidazo[1,2-a]pyrazin-2-yl)-7-[(3R)-3-methylpiperazin-1-yl]-1H-isochromen-1-one] | 219 to 225 | **** (an EC1.5×≦0.3 nM is indicated by four stars (****)) | ***** (a fold increase >1.65 is indicated by five stars (*****)) | ≤ 0.1
6 | CCN1CCN(c2ccc3cc(-c4cn5cc(C)ncc5n4)oc(=O)c3c2)C[C@H]1C [Cpd 126, 7-[(3R)-4-ethyl-3-methylpiperazin-1-yl]-3-(6-methylimidazo[1,2-a]pyrazin-2-yl)-1H-isochromen-1-one] | 238 to 241 | **** (an EC1.5×≦0.3 nM is indicated by four stars (****)) | **** (a fold increase between >1.5 and ≦1.65 is indicated by four stars (****)) | ≤ 0.1
7 | Cc1cn2cc(-c3cc4ccc(N5CCN(C)[C@H](C)C5)cc4c(=O)o3)nc2cn1 [Cpd 127, 7-[(3R)-3,4-dimethylpiperazin-1-yl]-3-(6-methylimidazo[1,2-a]pyrazin-2-yl)-1H-isochromen-1-one] | 243 to 248 | **** (an EC1.5×≦0.3 nM is indicated by four stars (****)) | ***** (a fold increase >1.65 is indicated by five stars (*****)) | ≤ 0.1
8 | Cc1cn2cc(-c3cc4ccc(N5CCN(C(C)C)CC5)cc4c(=O)o3)nc2cn1 [Cpd 128, 3-(6-methylimidazo[1,2-a]pyrazin-2-yl)-7-[4-(propan-2-yl)piperazin-1-yl]-1H-isochromen-1-one] | 231 to 236 | **** (an EC1.5×≦0.3 nM is indicated by four stars (****)) | ***** (a fold increase >1.65 is indicated by five stars (*****)) | ≤ 0.1
9 | CCN1[C@H](C)CN(c2ccc3cc(-c4cn5cc(C)ncc5n4)oc(=O)c3c2)C[C@@H]1C [Cpd 129, 7-[(3R,5S)-4-ethyl-3,5-dimethylpiperazin-1-yl]-3-(6-methylimidazo[1,2-a]pyrazin-2-yl)-1H-isochromen-1-one] | 233 to 238 | **** (an EC1.5×≦0.3 nM is indicated by four stars (****)) | ***** (a fold increase >1.65 is indicated by five stars (*****)) | ≤ 0.1

Second part, led by results:

Row | melting point [°C] | Compound | EC1.5x for Smn protein expression (Smn protein) | maximum fold (Fold) increase of Smn protein (Smn protein) | EC (1.5-fold) [1] [µM]
10 | 241 to 245 | Cc1cn2cc(-c3cc4ccc(N5C[C@@H](C)N(CCO)[C@@H](C)C5)cc4c(=O)o3)nc2cn1 [Cpd 130, 7-[(3R,5S)-4-(2-hydroxyethyl)-3,5-dimethylpiperazin-1-yl]-3-(6-methylimidazo[1,2-a]pyrazin-2-yl)-1H-isochromen-1-one] | **** (an EC1.5×≦0.3 nM is indicated by four stars (****)) | **** (a fold increase between >1.5 and ≦1.65 is indicated by four stars (****)) | ≤ 0.1
11 | 279 to 284 | Cc1cn2cc(-c3cc4ccc(N5C[C@@H](C)N(C)[C@@H](C)C5)cc4c(=O)o3)nc2cn1 [Cpd 131, 3-(6-methylimidazo[1,2-a]pyrazin-2-yl)-7-[(3R,5S)-3,4,5-trimethylpiperazin-1-yl]-1H-isochromen-1-one] | **** (an EC1.5×≦0.3 nM is indicated by four stars (****)) | ***** (a fold increase >1.65 is indicated by five stars (*****)) | ≤ 0.1
12 | 238 to 243 | CCN1CCN(c2ccc3cc(-c4cn5cc(C)nc(C)c5n4)oc(=O)c3c2)C[C@@H]1C [Cpd 135, 3-(6,8-dimethylimidazo[1,2-a]pyrazin-2-yl)-7-[(3S)-4-ethyl-3-methylpiperazin-1-yl]-1H-isochromen-1-one] | **** (an EC1.5×≦0.3 nM is indicated by four stars (****)) | ***** (a fold increase >1.65 is indicated by five stars (*****)) | ≤ 0.1
13 | 277 to 282 | Cc1cn2cc(-c3cc4ccc(N5CCN(C6CCC6)[C@@H](C)C5)cc4c(=O)o3)nc2c(C)n1 [Cpd 136, 7-[(3S)-4-cyclobutyl-3-methylpiperazin-1-yl]-3-(6,8-dimethylimidazo[1,2-a]pyrazin-2-yl)-1H-isochromen-1-one] | **** (an EC1.5×≦0.3 nM is indicated by four stars (****)) | ***** (a fold increase >1.65 is indicated by five stars (*****)) | ≤ 0.1
14 | 249 to 254 | CCCN1CCN(c2ccc3cc(-c4cn5cc(C)nc(C)c5n4)oc(=O)c3c2)C[C@@H]1C [Cpd 137, 3-(6,8-dimethylimidazo[1,2-a]pyrazin-2-yl)-7-[(3S)-3-methyl-4-propylpiperazin-1-yl]-1H-isochromen-1-one] | **** (an EC1.5×≦0.3 nM is indicated by four stars (****)) | ***** (a fold increase >1.65 is indicated by five stars (*****)) | ≤ 0.1
15 | 266 to 271 | Cc1cn2cc(-c3cc4ccc(N5CCN(C(C)C)[C@@H](C)C5)cc4c(=O)o3)nc2c(C)n1 [Cpd 138, 3-(6,8-dimethylimidazo[1,2-a]pyrazin-2-yl)-7-[(3S)-3-methyl-4-(propan-2-yl)piperazin-1-yl]-1H-isochromen-1-one] | *** (an EC1.5× between >0.3 nM and ≦1 nM is indicated by three stars (***)) | **** (a fold increase between >1.5 and ≦1.65 is indicated by four stars (****)) | 0.1 to 0.3
16 | 251 to 256 | Cc1cn2cc(-c3cc4ccc(N5CCN(C6COC6)[C@@H](C)C5)cc4c(=O)o3)nc2c(C)n1 [Cpd 139, 3-(6,8-dimethylimidazo[1,2-a]pyrazin-2-yl)-7-[(3S)-3-methyl-4-(oxetan-3-yl)piperazin-1-yl]-1H-isochromen-1-one] | ** (an EC1.5× between >1 μM, and ≦3 nM is indicated by two stars (**)) | ***** (a fold increase >1.65 is indicated by five stars (*****)) | 0.3 to 1
17 | 243 to 246 | CCN1CCN(c2ccc3cc(-c4cn5cc(C)nc(C)c5n4)oc(=O)c3c2)C[C@H]1C [Cpd 140, 3-(6,8-dimethylimidazo[1,2-a]pyrazin-2-yl)-7-[(3R)-4-ethyl-3-methylpiperazin-1-yl]-1H-isochromen-1-one] | **** (an EC1.5×≦0.3 nM is indicated by four stars (****)) | ***** (a fold increase >1.65 is indicated by five stars (*****)) | ≤ 0.1
18 | 251 to 256 | CCCN1CCN(c2ccc3cc(-c4cn5cc(C)nc(C)c5n4)oc(=O)c3c2)C[C@H]1C [Cpd 141, 3-(6,8-dimethylimidazo[1,2-a]pyrazin-2-yl)-7-[(3R)-3-methyl-4-propylpiperazin-1-yl]-1H-isochromen-1-one] | **** (an EC1.5×≦0.3 nM is indicated by four stars (****)) | ***** (a fold increase >1.65 is indicated by five stars (*****)) | ≤ 0.1
